Assays:
Experiment in all cases: relative viability (nuclei count vs DMSO), 5 days (fraction); higher = more cells survive
ChaGo-K-1 = tested on: ChaGo-K-1
Procedure, shortened: (§1)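 Five library-drug doses in √10 steps were combined with a fixed anchor-drug dose, or a single drug was given alone, by pin tool to lung cancer cell lines in 1536-well plates the day after seeding. Nuclei were stained and counted after 5 days. Relative viability is the nuclei count in treated wells over that in vehicle wells, taken as the median of duplicate plates.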

LK-2 = tested on: LK-2
Procedure, shortened: as §1

HCC-827 = tested on: HCC-827
Procedure, shortened: as §1

NCI-H2126 = tested on: NCI-H2126
Procedure, shortened: as §1

NCI-H2085 = tested on: NCI-H2085
Procedure, shortened: as §1

NCI-H23 = tested on: NCI-H23
Procedure, shortened: as §1

EPLC-272H = tested on: EPLC-272H
Procedure, shortened: as §1

LU99A = tested on: LU99A
Procedure, shortened: as §1

NCI-H1666 = tested on: NCI-H1666
Procedure, shortened: as §1

NCI-H1975 = tested on: NCI-H1975
Procedure, shortened: as §1

HCC-78 = tested on: HCC-78
Procedure, shortened: as §1

LOU-NH91 = tested on: LOU-NH91
Procedure, shortened: as §1

LXF-289 = tested on: LXF-289
Procedure, shortened: as §1

LCLC-103H = tested on: LCLC-103H
Procedure, shortened: as §1

EMC-BAC-2 = tested on: EMC-BAC-2
Procedure, shortened: as §1

NCI-H322M = tested on: NCI-H322M
Procedure, shortened: as §1

NCI-H2405 = tested on: NCI-H2405
Procedure, shortened: as §1

SW 1573 = tested on: SW 1573
Procedure, shortened: as §1

RERF-LC-KJ = tested on: RERF-LC-KJ
Procedure, shortened: as §1

NCI-H1563 = tested on: NCI-H1563
Procedure, shortened: as §1

SW 900 = tested on: SW 900
Procedure, shortened: as §1

NCI-H3122 = tested on: NCI-H3122
Procedure, shortened: as §1

SK-LU-1 = tested on: SK-LU-1
Procedure, shortened: as §1

NC(=O)Nc1cc(-c2cccc(F)c2)sc1C(=O)N[C@H]1CCCNC1 [AZD7762] + N=C(N)NC(=N)NCCc1ccccc1 [Phenformin] (partner 250 µM)
relative viability (ChaGo-K-1; first compound 0.01 µM): 0.517 | relative viability (ChaGo-K-1; first compound 0.03162 µM): 0.513 | relative viability (ChaGo-K-1; first compound 0.1 µM): 0.479 | relative viability (ChaGo-K-1; first compound 0.3162 µM): 0.468 | relative viability (ChaGo-K-1; first compound 1 µM): 0.496 | relative viability (LK-2; first compound 0.01 µM): 0.396 | relative viability (LK-2; first compound 0.03162 µM): 0.75 | relative viability (LK-2; first compound 0.1 µM): 0.384 | relative viability (LK-2; first compound 0.3162 µM): 0.45 | relative viability (LK-2; first compound 1 µM): 0.31 | relative viability (HCC-827; first compound 0.01 µM): 0.406 | relative viability (HCC-827; first compound 0.03162 µM): 0.422 | relative viability (HCC-827; first compound 0.1 µM): 0.442 | relative viability (HCC-827; first compound 0.3162 µM): 0.435 | relative viability (HCC-827; first compound 1 µM): 0.249 | relative viability (NCI-H2126; first compound 0.01 µM): 0.513 | relative viability (NCI-H2126; first compound 0.03162 µM): 0.593 | relative viability (NCI-H2126; first compound 0.1 µM): 0.545 | relative viability (NCI-H2126; first compound 0.3162 µM): 0.536 | relative viability (NCI-H2126; first compound 1 µM): 0.462 | relative viability (NCI-H2085; first compound 0.01 µM): 0.647 | relative viability (NCI-H2085; first compound 0.03162 µM): 0.806 | relative viability (NCI-H2085; first compound 0.1 µM): 0.811 | relative viability (NCI-H2085; first compound 0.3162 µM): 0.685 | relative viability (NCI-H2085; first compound 1 µM): 0.496 | relative viability (NCI-H23; first compound 0.01 µM): 0.813 | relative viability (NCI-H23; first compound 0.03162 µM): 0.831 | relative viability (NCI-H23; first compound 0.1 µM): 0.808 | relative viability (NCI-H23; first compound 0.3162 µM): 0.654 | relative viability (NCI-H23; first compound 1 µM): 0.434 | relative viability (EPLC-272H; first compound 0.01 µM): 0.325 | relative viability (EPLC-272H; first compound 0.03162 µM): 0.359 | relative viability (EPLC-272H; first compound 0.1 µM): 0.278 | relative viability (EPLC-272H; first compound 0.3162 µM): 0.261 | relative viability (EPLC-272H; first compound 1 µM): 0.164 | relative viability (LU99A; first compound 0.01 µM): 0.777 | relative viability (LU99A; first compound 0.03162 µM): 0.934 | relative viability (LU99A; first compound 0.1 µM): 0.868 | relative viability (LU99A; first compound 0.3162 µM): 0.795 | relative viability (LU99A; first compound 1 µM): 0.512 | relative viability (NCI-H1666; first compound 0.01 µM): 0.549 | relative viability (NCI-H1666; first compound 0.03162 µM): 0.596 | relative viability (NCI-H1666; first compound 0.1 µM): 0.532 | relative viability (NCI-H1666; first compound 0.3162 µM): 0.554 | relative viability (NCI-H1666; first compound 1 µM): 0.467 | relative viability (NCI-H1975; first compound 0.01 µM): 0.425 | relative viability (NCI-H1975; first compound 0.03162 µM): 0.411 | relative viability (NCI-H1975; first compound 0.1 µM): 0.417 | relative viability (NCI-H1975; first compound 0.3162 µM): 0.386 | relative viability (NCI-H1975; first compound 1 µM): 0.328 | relative viability (HCC-78; first compound 0.01 µM): 0.737 | relative viability (HCC-78; first compound 0.03162 µM): 1.12 | relative viability (HCC-78; first compound 0.1 µM): 0.766 | relative viability (HCC-78; first compound 0.3162 µM): 0.718 | relative viability (HCC-78; first compound 1 µM): 0.604 | relative viability (LOU-NH91; first compound 0.01 µM): 0.783 | relative viability (LOU-NH91; first compound 0.03162 µM): 0.76 | relative viability (LOU-NH91; first compound 0.1 µM): 0.717 | relative viability (LOU-NH91; first compound 0.3162 µM): 0.772 | relative viability (LOU-NH91; first compound 1 µM): 0.525 | relative viability (LXF-289; first compound 0.01 µM): 0.49 | relative viability (LXF-289; first compound 0.03162 µM): 0.54 | relative viability (LXF-289; first compound 0.1 µM): 0.508 | relative viability (LXF-289; first compound 0.3162 µM): 0.445 | relative viability (LXF-289; first compound 1 µM): 0.526 | relative viability (LCLC-103H; first compound 0.01 µM): 0.376 | relative viability (LCLC-103H; first compound 0.03162 µM): 0.35 | relative viability (LCLC-103H; first compound 0.1 µM): 0.352 | relative viability (LCLC-103H; first compound 0.3162 µM): 0.312 | relative viability (LCLC-103H; first compound 1 µM): 0.339 | relative viability (EMC-BAC-2; first compound 0.01 µM): 0.52 | relative viability (EMC-BAC-2; first compound 0.03162 µM): 0.581 | relative viability (EMC-BAC-2; first compound 0.1 µM): 0.542 | relative viability (EMC-BAC-2; first compound 0.3162 µM): 0.448 | relative viability (EMC-BAC-2; first compound 1 µM): 0.474 | relative viability (NCI-H322M; first compound 0.01 µM): 0.704 | relative viability (NCI-H322M; first compound 0.03162 µM): 0.85 | relative viability (NCI-H322M; first compound 0.1 µM): 0.747 | relative viability (NCI-H322M; first compound 0.3162 µM): 0.36 | relative viability (NCI-H322M; first compound 1 µM): 0.284 | relative viability (NCI-H2405; first compound 0.01 µM): 0.4 | relative viability (NCI-H2405; first compound 0.03162 µM): 0.452 | relative viability (NCI-H2405; first compound 0.1 µM): 0.402 | relative viability (NCI-H2405; first compound 0.3162 µM): 0.425 | relative viability (NCI-H2405; first compound 1 µM): 0.242 | relative viability (SW 1573; first compound 0.01 µM): 0.374 | relative viability (SW 1573; first compound 0.03162 µM): 0.384 | relative viability (SW 1573; first compound 0.1 µM): 0.346 | relative viability (SW 1573; first compound 0.3162 µM): 0.297 | relative viability (SW 1573; first compound 1 µM): 0.164 | relative viability (RERF-LC-KJ; first compound 0.01 µM): 0.481 | relative viability (RERF-LC-KJ; first compound 0.03162 µM): 0.424 | relative viability (RERF-LC-KJ; first compound 0.1 µM): 0.399 | relative viability (RERF-LC-KJ; first compound 0.3162 µM): 0.4 | relative viability (RERF-LC-KJ; first compound 1 µM): 0.382 | relative viability (NCI-H1563; first compound 0.01 µM): 0.645 | relative viability (NCI-H1563; first compound 0.03162 µM): 0.691 | relative viability (NCI-H1563; first compound 0.1 µM): 0.687 | relative viability (NCI-H1563; first compound 0.3162 µM): 0.612 | relative viability (NCI-H1563; first compound 1 µM): 0.694 | relative viability (SW 900; first compound 0.01 µM): 0.777 | relative viability (SW 900; first compound 0.03162 µM): 0.746 | relative viability (SW 900; first compound 0.1 µM): 0.65 | relative viability (SW 900; first compound 0.3162 µM): 0.579 | relative viability (SW 900; first compound 1 µM): 0.29 | relative viability (NCI-H3122; first compound 0.01 µM): 0.389 | relative viability (NCI-H3122; first compound 0.03162 µM): 0.412 | relative viability (NCI-H3122; first compound 0.1 µM): 0.416 | relative viability (NCI-H3122; first compound 0.3162 µM): 0.341 | relative viability (NCI-H3122; first compound 1 µM): 0.317 | relative viability (SK-LU-1; first compound 0.01 µM): 0.563 | relative viability (SK-LU-1; first compound 0.03162 µM): 0.494 | relative viability (SK-LU-1; first compound 0.1 µM): 0.17 | relative viability (SK-LU-1; first compound 0.3162 µM): 0.139 | relative viability (SK-LU-1; first compound 1 µM): 0.131
